Experimental data as given in patent US20250255890A1, “PSILOCYBIN CULTIVATION, EXTRACTION, AND THERAPEUTIC USE” (Golden Fleece Research Group Inc., priority 2024, published 2025).

Tested on: patients with certain neurological and mental disorders
Experiment: Therapeutic effects of psilocybin in selected patients (patient experiences)
Type: in vivo, human
Settings: identified group of selected patients after intaking the psilocybin products
Description: In one aspect, psilocybin is effective in treating and reducing ADHD, anxiety, ADD and the symptoms of Tourette Syndrome. […] Some patients suffered significant side effects when taking prescription drugs for the respective indications.

CN(C)CCc1c[nH]c2cccc(OP(=O)(O)O)c12 [Psilocybin, psilocybin]
side effects: minimal side effects
